# From ChEMBL document CHEMBL5360578, “Design, synthesis and evaluation of novel pyrrole-hydroxybutenolide hybrids as promising antiplasmodial and anti-inflammatory agents” (Eur J Med Chem, 2023)
# The source made the active and inactive calls. The rule behind the calls is not given here.
# How the values were obtained:
# [1] = Cytotoxicity against African green monkey Vero cells incubated for 3 days by fluorescence based assay; format: toxicity, cell-based; conditions: chlorocebus sabaeus, time 3 day
# Plasmodium yoelii [2] = assay: Antimalarial activity against chloroquine-resistant Plasmodium yoelii N67 infected in Swiss mouse assessed as parasite growth suppression at 100 mg/kg/day, po for 4 days measured on day 4 relative to control; format: functional; conditions: time 4 day
# Plasmodium falciparum [3] = assay: Antimalarial activity against asynchronous chloroquine-sensitive Plasmodium falciparum 3D7 assessed as parasite growth inhibition infected in erythrocytes incubated for 72 hrs by SYBR green dye based assay; format: functional, organism-based; conditions: 3D7, 72 h
# HEK-293T [4] = assay: Antiinflammatory activity against HEK293T cells assessed as fold increase in TNFalpha-induced NF-kappaB activity at 10 uM incubated for 1 hr followed by TNFalpha treatment for 5 hrs by luciferase based assay (reference value: 17.1); format: functional, Homo sapiens
# Plasmodium yoelii [5] = assay: Antimalarial activity against chloroquine-resistant Plasmodium yoelii N67 infected in Swiss mouse assessed as parasite growth suppression at 100 mg/kg/day, po for 4 days measured on day 7 relative to control; format: functional; conditions: time 7 day
# THP-1 [6] = assay: Antiinflammatory activity against human THP-1 cells assessed as inhibition of LPS-induced TNFalpha level at 10 uM incubated for 12 to 14 hrs followed by compound replenishment for 1 hr and subsequent LPS treatment for 4 hrs by ELISA assay (reference value: 93.43 %); format: functional; set-up: scale not given: the % may be the effect or the level left; conditions: time 17-19 hrs
# THP-1 [7] = assay: Cytotoxicity against LPS-stimulated human THP-1 cells assessed as cell viability at 10 uM incubated for 12 hrs followed by LPS treatment measured after 4 hrs by PI staining based flow cytometry; format: functional; conditions: time 16.0 hrs
# [8] = Toxicity in Swiss mouse infected with chloroquine-resistant Plasmodium yoelii N67 assessed as mean survival time at 100 mg/kg/day, po for 4 days (reference value: 7.2 +/- 1.3 day); format: organism-based; conditions: in vivo, 96 h, time 4 day
# Plasmodium falciparum [9] = assay: Antimalarial activity against asynchronous chloroquine-resistant Plasmodium falciparum K1 assessed as parasite growth inhibition infected in erythrocytes incubated for 72 hrs by SYBR green dye based assay; format: functional, organism-based; conditions: K1, 72 h
# HEK-293T [10] = assay: Antiinflammatory activity against HEK293T cells assessed as fold increase in TNFalpha-induced NF-kappaB activity at 1 uM incubated for 1 hr followed by TNFalpha treatment for 5 hrs by luciferase based assay (reference value: 17.1); format: functional, Homo sapiens; conditions: time 6 hrs
SMILES,CC50 at 72 h [1],Activity (Plasmodium yoelii [2]),IC50 (Plasmodium falciparum [3]),fold change (FC) (HEK-293T [4]),Activity (Plasmodium yoelii [5]),Activity (THP-1 [6]),Activity (THP-1 [7]),MST [8],IC50 (Plasmodium falciparum [9]),fold change (FC) (HEK-293T [10])
Cc1c(C(=O)Nc2ccccc2)c(-c2ccccc2)c(-c2ccc(F)cc2)n1CCC1=CC(=O)OC1O (centres undefined),> 200000 nM,56.4%,880 nM,11.4,46.6%,89.15%,Active,8 days,4310 nM,
COc1ccc(-c2c(-c3ccccc3)c(C(=O)Nc3ccccc3)c(C)n2CC2=CC(=O)OC2O)cc1 (centres undefined),,,3390 nM,10.4,,79.88%,Active,,,
CC(C)c1c(C(=O)Nc2ccccc2)c(-c2ccccc2)c(-c2ccc(F)cc2)n1CC[C@@H](O)C[C@@H](O)CC(=O)O [ATORVASTATIN],,,4600 nM,,,,,,> 5000 nM,
COc1ccc(-c2c(-c3ccccc3)c(C(=O)Nc3ccccc3)c(C)n2CCC2=CC(=O)OC2O)cc1 (centres undefined),,,> 5000 nM,,,,,,,
CCc1ccc(-c2c(-c3ccccc3)c(C(=O)Nc3ccccc3)c(C)n2CC2=CC(=O)OC2O)cc1 (centres undefined),,,1210 nM,7,,89.97%,Active,,,
Cc1c(C(=O)Nc2ccccc2)c(-c2ccc(F)cc2)c(-c2ccc(F)cc2)n1CCC1=CC(=O)OC1O (centres undefined),,,> 5000 nM,9.7,,12.55%,Active,,,
O=C1OC(O)C(Cl)=C1Cl (centres undefined) [MUCOCHLORIC ACID],,,4000 nM,,,,,,> 5000 nM,
Cc1ccc(-c2c(-c3ccccc3)c(C(=O)Nc3ccccc3)c(C)n2CCC2=CC(=O)OC2O)cc1 (centres undefined),> 200000 nM,34.6%,600 nM,13.1,80.68%,46.46%,Active,14.6 days,3920 nM,
COc1ccc(-c2c(C(=O)Nc3ccccc3)c(C)n(CCC3=CC(=O)OC3O)c2-c2ccc(OC)cc2)cc1 (centres undefined),,,1490 nM,8.6,,85.2%,Active,,,
Cc1c(C(=O)Nc2ccccc2)c(-c2ccc(Cl)cc2)c(-c2ccc(Cl)cc2)n1CC1=CC(=O)OC1O (centres undefined),,,1870 nM,8.5,,91.04%,Active,,,
S=C(S)N1CCCC1 [PYRROLIDINE DITHIOCARBAMATE],,,,,,,,,,2.3
CCc1ccc(-c2c(-c3ccccc3)c(C(=O)Nc3ccccc3)c(C)n2CCC2=CC(=O)OC2O)cc1 (centres undefined),,,1550 nM,7.8,,89.93%,Active,,,
CC1=CCC[C@@H]2[C@@](C)(CCC3=CC(=O)O[C@@H]3O)[C@H](C)CC[C@@]12C,,,1270 nM,,,,,,2880 nM,
Cc1c(C(=O)Nc2ccccc2)c(-c2ccccc2)c(-c2ccc(F)cc2)n1CC1=CC(=O)OC1O (centres undefined),,,2660 nM,10.3,,83.11%,Active,,,
